Literature values in patent US4291169A, “Substituted naphthoic acids” (American Cyanamid Company, priority 1980, dated 1981).

Assays:
[1] = system: collagenase; conditions: Woolley et al. (1978); Seifter and Harper (1971)
[2] = system: collagenase; conditions: Thromb. Res., 10(4), 605-11 (1977)
[3] = system: alkali burned rabbit; conditions: directly applied to corneal ulcerations
[4] = system: corneal ulceration; conditions: human
[5] = compared with cysteine

Question: For sodium auriothiomalate, which “inhibition of connective tissue destruction / collagenase (in words)” value [1] is on record?
Answer: collagenase inhibitors

Question: Which “inhibition of the activity of collagenase (in words)” value [2] does the source give for `Cc1ccc(C(=O)Nc2ccc(S(=O)(=O)O)c3cc(S(=O)(=O)O)cc(S(=O)(=O)O)c23)cc1NC(=O)c1cccc(NC(=O)Nc2cccc(C(=O)Nc3cc(C(=O)Nc4ccc(S(=O)(=O)O)c5cc(S(=O)(=O)O)cc(S(=O)(=O)O)c45)ccc3C)c2)c1` [Suramin] here?
Answer: not inhibiting the action of collagenase

Question: With `O[C@H](CS)[C@H](O)CS` (relative stereo) [dithiothretol] as the molecule, how does the “inhibition of connective tissue destruction / collagenase (in words)” value [1] read?
Answer: collagenase inhibitors

Question: For `Cc1cc(-c2ccc(/N=N/c3c(S(=O)(=O)O)cc4cc(S(=O)(=O)O)cc(N)c4c3O)c(C)c2)ccc1/N=N/c1c(S(=O)(=O)O)cc2cc(S(=O)(=O)O)cc(N)c2c1O` [trypan blue], which “inhibition of the activity of collagenase (in words)” value [2] is on record?
Answer: inhibiting the activity of collagenase, or a proteinase contaminant in the collagenase preparation

Question: With `CC(=O)N[C@@H](CS)C(=O)O` [acetylcysteine] as the molecule, how does the “frequency of ulceration (in words)” value [3] read?
Answer: reduce the frequency of ulceration

Question: What about the “effect in treatment of acute and chronic corneal ulceration (in words)” value [4] of the same molecule?
Answer: effective in the treatment of acute and chronic corneal ulceration

Question: What about the “stability (in words)” value [5] of the same molecule?
Answer: greater stability

Question: Which “inhibition of connective tissue destruction / collagenase (in words)” value [1] does the source give for `c1cnc2c(c1)ccc1cccnc12` [1,10-phenanthroline] here?
Answer: collagenase inhibitors

Question: For `O=C([O-])CN(CCN(CC(=O)[O-])CC(=O)[O-])CC(=O)[O-].[Ca+2].[Ca+2]` [Calcium ethylenediaminetetraacetate], which “frequency of ulceration (in words)” value [3] is on record?
Answer: reduce the frequency of ulceration

Question: Which “effect in treatment of acute and chronic corneal ulceration (in words)” value [4] does the source give for `N[C@@H](CS)C(=O)O` [cysteine] here?
Answer: effective in the treatment of acute and chronic corneal ulceration

Question: And the “inhibition of connective tissue destruction / collagenase (in words)” value [1]?
Answer: collagenase inhibitors

Question: With “α2 -macroglobulin: Naturally occurring collagnase inhibitors include the serum components, α2 -macroglobulin and β1-anticollagenase” as the molecule, how does the “inhibition of connective tissue destruction / collagenase (in words)” value [1] read?
Answer: Naturally occurring collagnase inhibitors
